Test results published in ChEMBL document CHEMBL4507311, “Data for DCP probe A-1155463” (2021).

Tests used:
[1] = molecular target: Serine/threonine-protein kinase PAK 2 (Homo sapiens) (UniProt Q13177); conditions: Compound concentration 1000.0 nM
[2] = molecular target: Receptor tyrosine-protein kinase erbB-2 (Homo sapiens) (UniProt P04626); conditions: Compound concentration 1000.0 nM
[3] = molecular target: Serine/threonine-protein kinase Nek7 (Homo sapiens) (UniProt Q8TDX7); conditions: Compound concentration 1000.0 nM
[4] = molecular target: Mitogen-activated protein kinase kinase kinase 1 (Homo sapiens) (UniProt Q13233); conditions: Compound concentration 1000.0 nM
[5] = molecular target: Serine/threonine-protein kinase Nek1 (Homo sapiens) (UniProt Q96PY6); conditions: Compound concentration 1000.0 nM
[6] = molecular target: Protein kinase C theta type (Homo sapiens) (UniProt Q04759); conditions: Compound concentration 1000.0 nM
[7] = molecular target: Serine/threonine-protein kinase 32C (Homo sapiens) (UniProt Q86UX6); conditions: Compound concentration 1000.0 nM
[8] = system: Serine/threonine-protein kinase B-raf (Homo sapiens), P15056 [V600E]; conditions: Compound concentration 1000.0 nM
[9] = molecular target: Cyclin-dependent kinase 13 (Homo sapiens) (UniProt Q14004); conditions: Compound concentration 1000.0 nM
[10] = system: Epidermal growth factor receptor (Homo sapiens), P00533 [UNDEFINED MUTATION]; conditions: Compound concentration 1000.0 nM
[11] = molecular target: Serine/threonine-protein kinase RIO2 (Homo sapiens) (UniProt Q9BVS4); conditions: Compound concentration 1000.0 nM
[12] = molecular target: Ephrin type-B receptor 3 (Homo sapiens) (UniProt P54753); conditions: Compound concentration 1000.0 nM
[13] = molecular target: Cyclin-dependent kinase 4 (Homo sapiens) (UniProt P11802); conditions: Compound concentration 1000.0 nM
[14] = molecular target: Serine/threonine-protein kinase Nek2 (Homo sapiens) (UniProt P51955); conditions: Compound concentration 1000.0 nM
[15] = molecular target: Serine/threonine-protein kinase ULK3 (Homo sapiens) (UniProt Q6PHR2); conditions: Compound concentration 1000.0 nM
[16] = molecular target: Serine/threonine-protein kinase MRCK alpha (Homo sapiens) (UniProt Q5VT25); conditions: Compound concentration 1000.0 nM
[17] = molecular target: Calcium/calmodulin-dependent protein kinase type 1D (Homo sapiens) (UniProt Q8IU85); conditions: Compound concentration 1000.0 nM
[18] = system: Tyrosine-protein kinase ABL1 (Homo sapiens), P00519 [E255K]; conditions: Compound concentration 1000.0 nM
[19] = molecular target: Mitogen-activated protein kinase kinase kinase 13 (Homo sapiens) (UniProt O43283); conditions: Compound concentration 1000.0 nM
[20] = molecular target: Tyrosine-protein kinase Lck (Homo sapiens) (UniProt P06239); conditions: Compound concentration 1000.0 nM
[21] = molecular target: Ribosomal protein S6 kinase alpha-3 (Homo sapiens) (UniProt P51812); conditions: Compound concentration 1000.0 nM
[22] = molecular target: TGF-beta receptor type-1 (Homo sapiens) (UniProt P36897); conditions: Compound concentration 1000.0 nM
[23] = molecular target: Mitotic checkpoint serine/threonine-protein kinase BUB1 (Homo sapiens) (UniProt O43683); conditions: Compound concentration 1000.0 nM
[24] = molecular target: Tyrosine-protein kinase receptor Tie-1 (Homo sapiens) (UniProt P35590); conditions: Compound concentration 1000.0 nM
[25] = molecular target: Glycogen synthase kinase-3 beta (Homo sapiens) (UniProt P49841); conditions: Compound concentration 1000.0 nM
[26] = molecular target: Mitogen-activated protein kinase 9 (Homo sapiens) (UniProt P45984); conditions: Compound concentration 1000.0 nM
[27] = molecular target: Serine/threonine-protein kinase TNNI3K (Homo sapiens) (UniProt Q59H18); conditions: Compound concentration 1000.0 nM
[28] = molecular target: Serine/threonine-protein kinase 33 (Homo sapiens) (UniProt Q9BYT3); conditions: Compound concentration 1000.0 nM
[29] = molecular target: Mitogen-activated protein kinase 7 (Homo sapiens) (UniProt Q13164); conditions: Compound concentration 1000.0 nM
[30] = molecular target: Serine/threonine-protein kinase TAO3 (Homo sapiens) (UniProt Q9H2K8); conditions: Compound concentration 1000.0 nM
[31] = molecular target: Calcium/calmodulin-dependent protein kinase type IV (Homo sapiens) (UniProt Q16566); conditions: Compound concentration 1000.0 nM
[32] = molecular target: Tyrosine-protein kinase JAK1 (Homo sapiens) (UniProt P23458); conditions: Compound concentration 1000.0 nM
[33] = molecular target: Protein kinase C epsilon type (Homo sapiens) (UniProt Q02156); conditions: Compound concentration 1000.0 nM
[34] = molecular target: Serine/threonine-protein kinase 38-like (Homo sapiens) (UniProt Q9Y2H1); conditions: Compound concentration 1000.0 nM
[35] = molecular target: Cyclin-dependent kinase 4 (Homo sapiens) (UniProt P11802); conditions: Compound concentration 1000.0 nM; remark: listed apart in the source
[36] = molecular target: Cyclin-dependent kinase-like 3 (Homo sapiens) (UniProt Q8IVW4); conditions: Compound concentration 1000.0 nM
[37] = molecular target: T1, Muscarinic acetylcholine receptor M2 (Homo sapiens) (UniProt P08172); conditions: Compound concentration 10.0 uM
T1 sequence (whole entry): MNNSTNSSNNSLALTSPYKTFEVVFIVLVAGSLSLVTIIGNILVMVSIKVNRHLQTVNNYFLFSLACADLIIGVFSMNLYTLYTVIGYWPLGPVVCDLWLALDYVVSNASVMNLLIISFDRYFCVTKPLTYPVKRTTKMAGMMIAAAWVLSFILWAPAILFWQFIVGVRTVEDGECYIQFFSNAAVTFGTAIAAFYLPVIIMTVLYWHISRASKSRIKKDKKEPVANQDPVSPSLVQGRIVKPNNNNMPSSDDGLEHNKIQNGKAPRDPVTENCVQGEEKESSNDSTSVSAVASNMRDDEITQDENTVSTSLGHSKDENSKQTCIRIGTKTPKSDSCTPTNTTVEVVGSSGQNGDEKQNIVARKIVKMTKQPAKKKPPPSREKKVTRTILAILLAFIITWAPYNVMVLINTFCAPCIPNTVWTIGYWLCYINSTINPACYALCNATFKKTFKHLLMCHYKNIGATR

[38] = molecular target: Serine/threonine-protein kinase VRK2 (Homo sapiens) (UniProt Q86Y07); conditions: Compound concentration 1000.0 nM
[39] = molecular target: Mitogen-activated protein kinase kinase kinase 7 (Homo sapiens) (UniProt O43318); conditions: Compound concentration 1000.0 nM

Chain of Cyclin-dependent kinase 4 (Homo sapiens) (P11802 whole entry): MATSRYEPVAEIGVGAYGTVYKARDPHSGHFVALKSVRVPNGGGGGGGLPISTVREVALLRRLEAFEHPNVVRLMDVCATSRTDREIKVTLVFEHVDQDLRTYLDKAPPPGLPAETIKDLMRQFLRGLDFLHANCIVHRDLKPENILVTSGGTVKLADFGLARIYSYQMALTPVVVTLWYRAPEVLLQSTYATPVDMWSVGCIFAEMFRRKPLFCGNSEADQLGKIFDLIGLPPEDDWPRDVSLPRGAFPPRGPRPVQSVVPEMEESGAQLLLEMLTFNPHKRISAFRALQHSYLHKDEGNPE
Chain of Ephrin type-B receptor 3 (Homo sapiens) (P54753 whole entry): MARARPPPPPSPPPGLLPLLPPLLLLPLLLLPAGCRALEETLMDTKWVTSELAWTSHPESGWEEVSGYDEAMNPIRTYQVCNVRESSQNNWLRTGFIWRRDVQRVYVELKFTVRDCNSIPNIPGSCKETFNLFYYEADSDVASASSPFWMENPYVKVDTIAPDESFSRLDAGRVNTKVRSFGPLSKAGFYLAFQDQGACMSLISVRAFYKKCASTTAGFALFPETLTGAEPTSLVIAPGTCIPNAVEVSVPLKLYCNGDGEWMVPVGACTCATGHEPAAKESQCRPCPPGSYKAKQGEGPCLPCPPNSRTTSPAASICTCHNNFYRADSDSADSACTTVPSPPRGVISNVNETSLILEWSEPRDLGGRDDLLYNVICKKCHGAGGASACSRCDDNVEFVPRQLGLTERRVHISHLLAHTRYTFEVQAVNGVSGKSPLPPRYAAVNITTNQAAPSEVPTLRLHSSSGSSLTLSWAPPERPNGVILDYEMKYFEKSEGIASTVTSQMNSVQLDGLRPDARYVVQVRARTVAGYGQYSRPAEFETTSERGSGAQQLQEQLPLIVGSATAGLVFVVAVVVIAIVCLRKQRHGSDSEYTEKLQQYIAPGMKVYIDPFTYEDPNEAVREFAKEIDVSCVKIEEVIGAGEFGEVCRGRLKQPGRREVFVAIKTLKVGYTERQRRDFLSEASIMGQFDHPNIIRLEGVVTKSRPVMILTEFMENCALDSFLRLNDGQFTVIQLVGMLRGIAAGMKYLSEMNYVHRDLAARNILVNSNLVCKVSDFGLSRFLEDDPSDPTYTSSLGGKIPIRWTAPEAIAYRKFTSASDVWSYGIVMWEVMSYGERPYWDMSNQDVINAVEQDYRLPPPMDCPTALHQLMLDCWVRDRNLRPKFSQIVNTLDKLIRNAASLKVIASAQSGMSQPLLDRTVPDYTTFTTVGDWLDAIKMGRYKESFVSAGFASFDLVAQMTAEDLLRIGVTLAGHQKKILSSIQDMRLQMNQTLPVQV
Chain of Serine/threonine-protein kinase MRCK alpha (Homo sapiens) (Q5VT25 whole entry): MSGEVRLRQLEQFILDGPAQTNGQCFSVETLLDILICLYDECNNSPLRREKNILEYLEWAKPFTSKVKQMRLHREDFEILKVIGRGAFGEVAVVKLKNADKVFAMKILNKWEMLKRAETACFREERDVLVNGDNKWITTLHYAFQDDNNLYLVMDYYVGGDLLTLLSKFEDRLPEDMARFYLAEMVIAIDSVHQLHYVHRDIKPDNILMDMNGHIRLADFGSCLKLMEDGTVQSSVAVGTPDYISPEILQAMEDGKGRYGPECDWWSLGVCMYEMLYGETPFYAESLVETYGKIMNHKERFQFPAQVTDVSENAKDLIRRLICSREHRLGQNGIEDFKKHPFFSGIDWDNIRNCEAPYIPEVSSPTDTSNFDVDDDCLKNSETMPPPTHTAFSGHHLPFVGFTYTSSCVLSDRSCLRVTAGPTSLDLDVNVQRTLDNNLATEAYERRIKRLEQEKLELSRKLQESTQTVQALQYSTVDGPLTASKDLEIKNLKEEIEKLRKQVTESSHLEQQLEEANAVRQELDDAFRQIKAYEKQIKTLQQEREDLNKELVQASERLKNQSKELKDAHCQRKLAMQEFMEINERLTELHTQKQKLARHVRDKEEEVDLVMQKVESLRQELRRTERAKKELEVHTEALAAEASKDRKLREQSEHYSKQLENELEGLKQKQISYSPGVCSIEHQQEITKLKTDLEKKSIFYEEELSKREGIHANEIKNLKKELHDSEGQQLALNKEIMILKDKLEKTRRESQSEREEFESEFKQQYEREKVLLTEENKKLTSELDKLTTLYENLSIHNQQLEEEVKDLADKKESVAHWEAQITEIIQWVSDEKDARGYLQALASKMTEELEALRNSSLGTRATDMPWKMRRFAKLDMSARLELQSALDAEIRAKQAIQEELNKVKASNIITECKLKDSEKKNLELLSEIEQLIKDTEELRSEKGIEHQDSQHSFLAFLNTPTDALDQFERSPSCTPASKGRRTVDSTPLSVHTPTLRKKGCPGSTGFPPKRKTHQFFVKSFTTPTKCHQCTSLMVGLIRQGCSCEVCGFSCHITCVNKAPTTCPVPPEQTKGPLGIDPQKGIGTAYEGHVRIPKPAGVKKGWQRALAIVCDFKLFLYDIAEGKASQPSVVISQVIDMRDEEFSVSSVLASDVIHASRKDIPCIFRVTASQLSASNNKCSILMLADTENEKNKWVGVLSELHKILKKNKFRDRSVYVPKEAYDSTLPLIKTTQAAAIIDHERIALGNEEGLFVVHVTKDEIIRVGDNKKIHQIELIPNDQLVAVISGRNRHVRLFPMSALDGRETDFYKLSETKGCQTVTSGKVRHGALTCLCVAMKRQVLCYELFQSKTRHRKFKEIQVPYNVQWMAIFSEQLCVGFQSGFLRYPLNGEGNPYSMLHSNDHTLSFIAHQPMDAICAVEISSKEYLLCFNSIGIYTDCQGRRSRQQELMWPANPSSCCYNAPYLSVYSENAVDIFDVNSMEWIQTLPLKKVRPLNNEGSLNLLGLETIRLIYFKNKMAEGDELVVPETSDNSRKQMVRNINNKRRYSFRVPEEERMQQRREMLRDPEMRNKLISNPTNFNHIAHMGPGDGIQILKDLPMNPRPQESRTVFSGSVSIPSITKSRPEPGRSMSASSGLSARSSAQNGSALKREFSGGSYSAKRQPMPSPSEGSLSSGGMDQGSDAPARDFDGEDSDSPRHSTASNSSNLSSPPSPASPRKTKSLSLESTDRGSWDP
Chain of Cyclin-dependent kinase 13 (Homo sapiens) (Q14004 whole entry, looked up): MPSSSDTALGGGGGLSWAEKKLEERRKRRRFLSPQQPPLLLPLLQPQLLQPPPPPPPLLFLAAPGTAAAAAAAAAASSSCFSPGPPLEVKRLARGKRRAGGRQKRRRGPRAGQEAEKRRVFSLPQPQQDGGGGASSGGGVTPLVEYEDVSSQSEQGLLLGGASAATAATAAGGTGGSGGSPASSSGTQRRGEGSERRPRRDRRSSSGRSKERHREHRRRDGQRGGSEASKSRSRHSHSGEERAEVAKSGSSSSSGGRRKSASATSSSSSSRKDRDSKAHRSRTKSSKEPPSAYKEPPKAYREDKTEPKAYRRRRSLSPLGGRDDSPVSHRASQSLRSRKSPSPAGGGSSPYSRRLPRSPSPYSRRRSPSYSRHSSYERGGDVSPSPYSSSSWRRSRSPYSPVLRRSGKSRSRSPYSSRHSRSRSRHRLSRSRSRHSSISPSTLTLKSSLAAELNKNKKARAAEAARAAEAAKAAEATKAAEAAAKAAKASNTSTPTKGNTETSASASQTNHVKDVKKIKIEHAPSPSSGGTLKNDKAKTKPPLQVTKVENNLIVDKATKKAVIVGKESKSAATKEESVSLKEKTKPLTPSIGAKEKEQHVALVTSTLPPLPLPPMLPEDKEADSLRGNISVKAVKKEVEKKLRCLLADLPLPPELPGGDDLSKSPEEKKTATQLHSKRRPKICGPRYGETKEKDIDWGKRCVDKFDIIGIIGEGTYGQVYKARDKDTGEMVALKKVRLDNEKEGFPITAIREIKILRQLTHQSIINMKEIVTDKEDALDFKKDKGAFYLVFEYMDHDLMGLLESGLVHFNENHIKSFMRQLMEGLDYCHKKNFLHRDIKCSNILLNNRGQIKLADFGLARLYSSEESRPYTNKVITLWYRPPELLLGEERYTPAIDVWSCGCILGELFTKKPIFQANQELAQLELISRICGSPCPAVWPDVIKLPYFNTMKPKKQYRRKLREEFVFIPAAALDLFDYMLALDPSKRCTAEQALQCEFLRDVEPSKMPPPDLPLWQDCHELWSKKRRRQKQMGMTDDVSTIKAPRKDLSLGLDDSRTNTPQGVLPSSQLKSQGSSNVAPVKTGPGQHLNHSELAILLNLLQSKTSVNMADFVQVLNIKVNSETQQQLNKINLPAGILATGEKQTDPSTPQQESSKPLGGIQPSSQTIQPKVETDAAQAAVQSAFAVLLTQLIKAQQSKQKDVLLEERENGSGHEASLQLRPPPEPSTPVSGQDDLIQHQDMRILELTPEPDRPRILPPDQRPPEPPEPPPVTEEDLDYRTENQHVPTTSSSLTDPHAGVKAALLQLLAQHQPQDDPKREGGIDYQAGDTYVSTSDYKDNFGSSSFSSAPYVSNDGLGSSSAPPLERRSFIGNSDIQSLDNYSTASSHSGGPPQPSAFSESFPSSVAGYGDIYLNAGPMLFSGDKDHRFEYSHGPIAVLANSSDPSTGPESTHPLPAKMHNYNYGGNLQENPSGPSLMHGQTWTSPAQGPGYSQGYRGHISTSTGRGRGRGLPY
Chain of Calcium/calmodulin-dependent protein kinase type 1D (Homo sapiens) (Q8IU85 whole entry, looked up): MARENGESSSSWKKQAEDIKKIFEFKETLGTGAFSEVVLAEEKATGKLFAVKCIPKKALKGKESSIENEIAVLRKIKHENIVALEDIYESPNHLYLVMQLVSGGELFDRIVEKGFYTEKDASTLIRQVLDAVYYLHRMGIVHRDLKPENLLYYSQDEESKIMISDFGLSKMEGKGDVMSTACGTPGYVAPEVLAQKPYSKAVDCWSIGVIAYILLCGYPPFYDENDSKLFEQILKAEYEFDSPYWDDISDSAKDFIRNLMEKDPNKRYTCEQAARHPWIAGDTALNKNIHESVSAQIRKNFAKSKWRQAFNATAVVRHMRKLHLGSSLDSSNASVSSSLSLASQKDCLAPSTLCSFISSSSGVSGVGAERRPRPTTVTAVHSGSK

CN(C)CC#Cc1ccc(OCCCc2sc(N3CCc4cccc(C(=O)Nc5nc6ccccc6s5)c4C3)nc2C(=O)O)c(F)c1 [A-1155463]
inactive: residual activity [1] 93% | residual activity [2] 100% | residual activity [3] 99% | residual activity [4] 100% | residual activity [5] 100% | residual activity [6] 92% | residual activity [7] 75% | residual activity [8] 79% | residual activity [9] 100% | residual activity [10] 89% | residual activity [11] 100% | residual activity [12] 100% | residual activity [13] 100% | residual activity [14] 92% | residual activity [15] 100% | residual activity [16] 97% | residual activity [17] 90% | residual activity [18] 85% | residual activity [19] 96% | residual activity [20] 100% | residual activity [21] 100% | residual activity [22] 100% | residual activity [23] 81% | residual activity [24] 85% | residual activity [25] 93% | residual activity [26] 76% | residual activity [27] 100% | residual activity [28] 100% | residual activity [29] 99% | residual activity [30] 100% | residual activity [31] 98% | residual activity [32] 97% | residual activity [33] 100% | residual activity [34] 83% | residual activity [35] 100% | residual activity [36] 100% | inhibition [37] 34.7% | residual activity [38] 100% | residual activity [39] 100%
